The supplement of paper PMC11208160

Assay: recombinant UMI read abundance after kanamycin selection (control-corrected) (log10(CPM+1)); higher = more efficient recombination; extreme values may be limits of the assay; sequences stand for … in AGTGCAGAGAAAATCGGCCAGTTTTCTCTGCCTGCAGTCCGCATGCCGTGGGACCCCTTGGGTTCTAACCTGTTGCCTAGATTTATGCAGCGGACTGCCTTTCTCCCAAAGTGATAAACCGG…AGGTTGGTTTCACT; site = the 11-nt donor
Summary of the method: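 The measure is log10(CPM+1) for recombinant UMIs. These were PCR-amplified across the donor–target junction and sequenced after Escherichia coli carrying a donor and donor-binding-loop pair library and a target plasmid with T7-inducible IS621 bridge recombinase was plated on IPTG (0.07 mM) plus kanamycin or unselected. CPM were averaged over two replicates and scaled by control-derived factors.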
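Further: IS621 bridge recombinase in Escherichia coli cells against a fixed T5 target plasmid.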

Row | Sequence | recombinant UMI read abundance (log10)
1 | GACAAATCATGGACCGGTTTTCCCGGTAATCCGTATTTGGT (site GACAAAACTAC) | 0
2 | GACAAATCATGGACCGGTTTTCCCGGTAATCCGTATTTGGT (site GACAAACCTAC) | 0
3 | GACAAATCATGGACCGGTTTTCCCGGTAATCCGTATTTGGT (site GACAAAGCTAC) | 0.224
4 | GACAAATCATGGACCGGTTTTCCCGGTAATCCGTATTTGGT (site GACAAATCTAC) | 0.59
5 | GACAATCCATGGACCGGTTTTCCCGGTAATCCGTATTTGGT (site GACAAACCTAC) | 0
6 | GACAATCCATGGACCGGTTTTCCCGGTAATCCGTATTTGGT (site GACAACCCTAC) | 0.00483
7 | GACAATCCATGGACCGGTTTTCCCGGTAATCCGTATTTGGT (site GACAAGCCTAC) | 0.0115
8 | GACAATCCATGGACCGGTTTTCCCGGTAATCCGTATTTGGT (site GACAATCCTAC) | 0.0195
9 | GACACGACATGGACCGGTTTTCCCGGTAATCCGTATTTGGG (site GACACGACTCC) | 0.173
10 | GACAGGGCATGGACCGGTTTTCCCGGTAATCCGTATTTGAT (site GACAGGGCTAT) | 1.89
11 | GACATCCCATGGACCGGTTTTCCCGGTAATCCGTATTTGAA (site GACATCCCTTT) | 0.475
12 | GACCAACCATGGACCGGTTTTCCCGGTAATCCGTATTTGGT (site GACAAACCTAC) | 0
13 | GACCAACCATGGACCGGTTTTCCCGGTAATCCGTATTTGGT (site GACCAACCTAC) | 0.0426
14 | GACCAACCATGGACCGGTTTTCCCGGTAATCCGTATTTGGT (site GACGAACCTAC) | 0
15 | GACCAACCATGGACCGGTTTTCCCGGTAATCCGTATTTGGT (site GACTAACCTAC) | 0.00842
16 | GACCCATCATGGACCGGTTTTCCCGGTAATCCGTATTTGAG (site GACCCATCTCT) | 2.43
17 | GACCGTCCATGGACCGGTTTTCCCGGTAATCCGTATTTGAG (site GACCGTCCTCT) | 0.281
18 | GACCTACCATGGACCGGTTTTCCCGGTAATCCGTATTTGTC (site GACCTACCTGA) | 0
19 | GACCTCACATGGACCGGTTTTCCCGGTAATCCGTATTTGGG (site GACCTCACTCC) | 0.0144
20 | GACCTTGCATGGACCGGTTTTCCCGGTAATCCGTATTTGCA (site GACCTTGCTTG) | 0
21 | GACGAACCATGGACCGGTTTTCCCGGTAATCCGTATTTGAG (site GACGAACCTCT) | 0
22 | GACGAACCATGGACCGGTTTTCCCGGTAATCCGTATTTGGT (site GACAAACCTAC) | 0
23 | GACGAACCATGGACCGGTTTTCCCGGTAATCCGTATTTGGT (site GACCAACCTAC) | 0.0777
24 | GACGAACCATGGACCGGTTTTCCCGGTAATCCGTATTTGGT (site GACGAACCTAC) | 0
25 | GACGAACCATGGACCGGTTTTCCCGGTAATCCGTATTTGGT (site GACTAACCTAC) | 0.0149

Row | Sequence | recombinant UMI read abundance (log10)
26 | GACGCAACATGGACCGGTTTTCCCGGTAATCCGTATTTGTA (site GACGCAACTTA) | 1.34
27 | GACGCCGCATGGACCGGTTTTCCCGGTAATCCGTATTTGGC (site GACGCCGCTGC) | 2.91
28 | GACGTCTCATGGACCGGTTTTCCCGGTAATCCGTATTTGGA (site GACGTCTCTTC) | 1.94
29 | GACTATACATGGACCGGTTTTCCCGGTAATCCGTATTTGGG (site GACTATACTCC) | 0.588
30 | GACTCGACATGGACCGGTTTTCCCGGTAATCCGTATTTGCA (site GACTCGACTTG) | 1.84
31 | GACTCTGCATGGACCGGTTTTCCCGGTAATCCGTATTTGCT (site GACTCTGCTAG) | 1.3
32 | GACTGACCATGGACCGGTTTTCCCGGTAATCCGTATTTGGC (site GACTGACCTGC) | 0
33 | GACTGAGCATGGACCGGTTTTCCCGGTAATCCGTATTTGTC (site GACTGAGCTGA) | 2.29
34 | GACTGCACATGGACCGGTTTTCCCGGTAATCCGTATTTGGT (site GACTGCACTAC) | 0.857
35 | GACTTAGCATGGACCGGTTTTCCCGGTAATCCGTATTTGGT (site GACTTAGCTAC) | 0.191
36 | GAGAAACCATGGACCGGTTTTCCCGGTAATCCGTATTTGGT (site GAAAAACCTAC) | 0
37 | GAGAAACCATGGACCGGTTTTCCCGGTAATCCGTATTTGGT (site GACAAACCTAC) | 0
38 | GAGAAACCATGGACCGGTTTTCCCGGTAATCCGTATTTGGT (site GAGAAACCTAC) | 0
39 | GAGAAACCATGGACCGGTTTTCCCGGTAATCCGTATTTGGT (site GATAAACCTAC) | 0
40 | GAGAACCCATGGACCGGTTTTCCCGGTAATCCGTATTTGTC (site GAGAACCCTGA) | 0
41 | GAGAAGCCATGGACCGGTTTTCCCGGTAATCCGTATTTGAC (site GAGAAGCCTGT) | 0
42 | GAGACAACATGGACCGGTTTTCCCGGTAATCCGTATTTGAA (site GAGACAACTTT) | 0.852
43 | GAGACGACATGGACCGGTTTTCCCGGTAATCCGTATTTGGG (site GAGACGACTCC) | 0.501
44 | GAGACGACATGGACCGGTTTTCCCGGTAATCCGTATTTGTC (site GAGACGACTGA) | 1.94
45 | GAGACTACATGGACCGGTTTTCCCGGTAATCCGTATTTGAA (site GAGACTACTTT) | 0.551
46 | GAGATAACATGGACCGGTTTTCCCGGTAATCCGTATTTGCG (site GAGATAACTCG) | 1.56
47 | GAGATCACATGGACCGGTTTTCCCGGTAATCCGTATTTGGT (site GAGATCACTAC) | 1.37
48 | GAGATGACATGGACCGGTTTTCCCGGTAATCCGTATTTGCA (site GAGATGACTTG) | 2.52
49 | GAGCAATCATGGACCGGTTTTCCCGGTAATCCGTATTTGTT (site GAGCAATCTAA) | 2.77
50 | GAGCATGCATGGACCGGTTTTCCCGGTAATCCGTATTTGGT (site GAGCATGCTAC) | 1.5

Row | Sequence | recombinant UMI read abundance (log10)
51 | GAGCATGCATGGACCGGTTTTCCCGGTAATCCGTATTTGGT (site GCGCATGCTAC) | 0.474
52 | GAGCATGCATGGACCGGTTTTCCCGGTAATCCGTATTTGGT (site GGGCATGCTAC) | 0.422
53 | GAGCATGCATGGACCGGTTTTCCCGGTAATCCGTATTTGGT (site GTGCATGCTAC) | 0.162
54 | GAGCCGGCATGGACCGGTTTTCCCGGTAATCCGTATTTGGT (site GAGCCGGCTAC) | 0.57
55 | GAGCCTGCATGGACCGGTTTTCCCGGTAATCCGTATTTGGT (site GAGCCTGCTAC) | 0.482
56 | GAGCGTTCATGGACCGGTTTTCCCGGTAATCCGTATTTGCG (site GAGCGTTCTCG) | 1.82
57 | GAGCTAACATGGACCGGTTTTCCCGGTAATCCGTATTTGAT (site GAGCTAACTAT) | 2.46
58 | GAGCTAACATGGACCGGTTTTCCCGGTAATCCGTATTTGAT (site GAGCTCACTAT) | 0.0205
59 | GAGCTAACATGGACCGGTTTTCCCGGTAATCCGTATTTGAT (site GAGCTGACTAT) | 0.034
60 | GAGCTAACATGGACCGGTTTTCCCGGTAATCCGTATTTGAT (site GAGCTTACTAT) | 0.00927
61 | GAGCTCACATGGACCGGTTTTCCCGGTAATCCGTATTTGCT (site GAGCTCACTAA) | 1.28
62 | GAGCTCACATGGACCGGTTTTCCCGGTAATCCGTATTTGCT (site GAGCTCACTAC) | 0.00315
63 | GAGCTCACATGGACCGGTTTTCCCGGTAATCCGTATTTGCT (site GAGCTCACTAG) | 2.24
64 | GAGCTCACATGGACCGGTTTTCCCGGTAATCCGTATTTGCT (site GAGCTCACTAT) | 1.14
65 | GAGCTGACATGGACCGGTTTTCCCGGTAATCCGTATTTGAT (site GAGCTAACTAT) | 2.08
66 | GAGCTGACATGGACCGGTTTTCCCGGTAATCCGTATTTGAT (site GAGCTCACTAT) | 0.0113
67 | GAGCTGACATGGACCGGTTTTCCCGGTAATCCGTATTTGAT (site GAGCTGACTAT) | 2.09
68 | GAGCTGACATGGACCGGTTTTCCCGGTAATCCGTATTTGAT (site GAGCTTACTAT) | 0.154
69 | GAGCTGCCATGGACCGGTTTTCCCGGTAATCCGTATTTGCG (site GAGCTGCCTCG) | 0.232
70 | GAGGAACCATGGACCGGTTTTCCCGGTAATCCGTATTTGTT (site GAGGAACCTAA) | 0
71 | GAGGATTCATGGACCGGTTTTCCCGGTAATCCGTATTTGTT (site GAAGATTCTAA) | 1.46
72 | GAGGATTCATGGACCGGTTTTCCCGGTAATCCGTATTTGTT (site GACGATTCTAA) | 0.365
73 | GAGGATTCATGGACCGGTTTTCCCGGTAATCCGTATTTGTT (site GAGGATTCTAA) | 2.83
74 | GAGGATTCATGGACCGGTTTTCCCGGTAATCCGTATTTGTT (site GATGATTCTAA) | 0.0156
75 | GAGGGGCCATGGACCGGTTTTCCCGGTAATCCGTATTTGGC (site GAGGGGCCTGC) | 0
